Test results: patent publication US20230075856A1, “CYCLIC SULFAMIDE COMPOUNDS FOR TREATMENT OF HBV” (Assembly Biosciences, Inc., priority 2018, published 2023)

What follows are compounds tested on HBV viral load production from HepAD38 cells (assay: Viral production from HepAD38 cells: viral load in supernatant by qPCR of the HBV core sequence). Conditions: 5 days incubation, qPCR of supernatant HBV DNA vs DMSO control, read-out: viral load lowering EC50 (Activity).
Type: cell-based
Procedure: Assay Measuring Activity of Test Compounds on Viral Production from HepAD38 Cells
HepAD38 cells grown in a T-150 flask (Corning, cat #: 430825) with Growth Medium (DMEM/F12 […] (Hyclone, cat #: SH30023.02), 1× Pen/Strep (Invitrogen, cat #: 15140-122), 10% FBS (Tissue Culture Biologics, cat #: 101), […] G418 (Alfa Aesar, cat #: J62671), 1 μg/mL Tetracycline (Teknova, cat #: T3320)) were detached with 0.25% trypsin-EDTA (Invitrogen, cat #: 25200-056). Tetracycline-free treatment medium (15 mL DMEM/F12 (1:1) 1× Pen/step, with 2% FBS, Tet-system approved (Clontech, cat #: 631106) were then added to mix, transferred into a 50 ml conical tube (Falcon, cat #: 21008-918,) and spun at 1300 rpm for 5 min. Pelleted cells were then re-suspended/washed with 50 mL of 1×DPBS (Invitrogen, cat #: 14190-136) 2 times and 50 mL treatment medium twice. HepAD38 cells were then re-suspended with 10 mL of treatment medium, syringed and counted. Wells of 96-well clear bottom TC plate (Corning, cat #: 3904,) were seeded at 50,000 cells/well in 180 μL of treatment medium, and 20 μL of either 10% DMSO (Sigma, cat #: D4540) as controls or a 10× solution of test compounds in 10% DMSO in treatment media was added for a final compound concentration starting at 10 μM, and plates were incubated in 5% CO2 incubator at 37° C. for 5 days.
Subsequently viral load production was assayed by quantitative PCR (qPCR) of the HBV core sequence. PCR reaction mixture containing forward primers HBV-f 5′-CTGTGCCTTGGGTGGCTIT-3′ (IDT DNA), Reverse primers HBV-r 5′-[…]-3′ (IDT DNA), Fluorescent TaqMan™ Probes HBV-probe 5′-FAM/AGCTCCAAA/ZEN/[…]/3IABkFQ-3′ (IDT DNA), 10 μL/well of PerfeCTa® qPCR ToughMix® (Quanta Biosciences, Cat #: 95114-05K), and 6 μL/well of DEPC water (Alfa Aesar, cat #: J62087) was prepared. Four μL of supernatant was added to 16 μL of the reaction mixture in a qPCR plate (Applied Biosytems, Cat #: 4309849), sealed with a film (Applied Biosystems, Cat #: 4311971), centrifuged for a few seconds, and subsequently run on an Applied Biosystems VIIA7. The PCR mixture was incubated at 45° C. for 5 min, then 95° C. for 10 min, followed by 40 cycles of 10 seconds at 95° C. and 20 seconds at 60° C. Viral load was quantified against known HBV DNA standards by using ViiA™ 7 Software. Viral load in the supernatant from wells with treated cells were compared against viral load in supernatant from DMSO control wells (≥3 per plate). Cell viability assay was performed with CellTiter-Glo Luminescent Cell Viability Assay (Promega, cat #: G7573) with modification. Mixed appropriate amount of CellTiter-Glo (CTG) 1×DPBS in a 1:1 ratio, added 100 uL of the mixture to each well followed completely removal of all supernatant in each well without touching cell surface. Incubated the plate at room temperature for 10 min on an orbital shaker, and then read the plate with a plate reader (TECAN M1000 or Envision). EC50 or CC50 values were calculated through curve-fitting of the four-parameter nonlinear-logistic-regression model (GraphPad Prism or Dotmatics). CC50 values were all >10 μM.

Cc1c(CNC(=O)C2CC(C(=O)Nc3ccc(F)c(Cl)c3)N(C)S(=O)(=O)N2)noc1-c1ccccc1 (single isomer, unassigned) [1150-ISOMER-B, N3-(3-chloro-4-fluoro-phenyl)-2-methyl-N5-[(4-methyl-5-phenyl-isoxazol-3-yl)methyl]-1,1-dioxo-1,2,6-thiadiazinane-3,5-dicarboxamide] and CN(C)CC(C)(C)COc1ccc(-c2ncc(CNC(=O)C3CC(C(=O)Nc4ccc(F)c(Cl)c4)N(C)S(=O)(=O)N3)s2)cc1 (single isomer, unassigned) [Compound 943-ISOMER-B, N3-(3-chloro-4-fluoro-phenyl)-N5-[[2-[4-[3-(dimethylamino)-2,2-dimethyl-propoxy]phenyl]thiazol-5-yl]methyl]-2methyl-1,1-dioxo-1,2,6-thiadiazinane-3,5-dicarboxamide] fall in the same range of EC50: 100 to 10000 nM for the first, 100 to 10000 nM for the second.

In the case of Cc1nc(-c2ccc(OCCN3CCCCC3)cc2)sc1CNC(=O)C1CC(C(=O)Nc2ccc(F)c(Cl)c2)N(C)S(=O)(=O)N1 (single isomer, unassigned) [1087-ISOMER-B, N3-(3-chloro-4-fluoro-phenyl)-2-methyl-N5-[[4-methyl-2-[4-[2-(1-piperidyl)ethoxy]phenyl]thiazol-5-yl]methyl]-1,1-dioxo-1,2,6-thiadiazinane-3,5-dicarboxamide], the EC50 is reported as 50 to 100 nM.

Same assay, conditions: Hepatitis B virus, HePAD38, 120 h, 5 days incubation, qPCR of supernatant HBV DNA vs DMSO control, read-out: viral load lowering EC50 (Activity)

First: CC(C)OC1CCC(NC(=O)C2CC(C(=O)Nc3ccc(F)c(Cl)c3)N(C)S(=O)(=O)N2)CC1 (single isomer, unassigned) [Compound 862-ISOMER-A, N3-(3-chloro-4-fluoro-phenyl)-N5-(4-isopropoxycyclohexyl)-2-methyl-1,1-dioxo-1,2,6-thiadiazinane-3,5-dicarboxamide]
Second: CC(C)OC(=O)N1CCC(NC(=O)C2CC(C(=O)Nc3ccc(F)c(Cl)c3)N(C)S(=O)(=O)N2)CC1 (centres unmarked) [Compound 766]
The EC50 of the first is higher: 100 to 10000 nM for the first, less than 50 nM for the second.

CN1C(C(=O)Nc2ccc(F)c(Cl)c2)CC(C(=O)NC2CCCc3nc(-c4ccccc4)sc32)NS1(=O)=O (centres unmarked) [Compound 917] and Cc1c(CNC(=O)C2CC(C(=O)Nc3ccc(F)c(Cl)c3)N(C)S(=O)(=O)N2)noc1-c1ccccc1 (single isomer, unassigned) [1150-ISOMER-A, N3-(3-chloro-4-fluoro-phenyl)-2-methyl-N5-[(4-methyl-5-phenyl-isoxazol-3-yl)methyl]-1,1-dioxo-1,2,6-thiadiazinane-3,5-dicarboxamide] cannot be ordered by EC50: less than 50 nM for the first, less than 50 nM for the second.

Compared with CN1C(C(=O)Nc2ccc(F)c(Cl)c2)CC(C(=O)NCc2ccc(Cl)cc2)NS1(=O)=O (single isomer, unassigned) [Compound 729-ISOMER-A, N3-(3-chloro-4-fluoro-phenyl)-N5-[(4-chlorophenyl)methyl]-2-methyl-1,1-dioxo-1,2,6-thiadiazinane-3,5-dicarboxamide], CN1C(C(=O)Nc2ccc(F)c(Cl)c2)CC(C(=O)NCc2cccc(C(F)(F)F)c2)NS1(=O)=O (centres unmarked) [Compound 724] is higher in EC50: less than 50 nM for the first, 50 to 100 nM for the second.

CN1C(C(=O)Nc2ccc(F)c(Cl)c2)CC(C(=O)NCC2CCCCC2)NS1(=O)=O (centres unmarked) [Compound 1160] and CN1C(C(=O)Nc2ccc(F)c(Cl)c2)CC(C(=O)NC2CCCCC2)NS1(=O)=O (centres unmarked) [Compound 728] fall in the same range of EC50: 100 to 10000 nM for the first, 100 to 10000 nM for the second.

CN1C(C(=O)Nc2ccc(F)c(Cl)c2)CC(C(=O)Nc2ccc3cccnc3c2)NS1(=O)=O (centres unmarked) [Compound 725] and CC(NC(=O)C1CC(C(=O)Nc2ccc(F)c(Cl)c2)N(C)S(=O)(=O)N1)c1ccccn1 (centres unmarked) [Compound 736] fall in the same range of EC50: 50 to 100 nM for the first, 50 to 100 nM for the second.

First: CN1C(C(=O)Nc2ccc(F)c(Cl)c2)CC(C(=O)N[C@@H](c2ccccc2)c2cnc(-c3ccccc3Cl)s2)NS1(=O)=O (single isomer, unassigned) [1068-ISOMER-B]
Second: COc1ccc(-c2cnc(CNC(=O)C3CC(C(=O)Nc4ccc(F)c(Cl)c4)N(C)S(=O)(=O)N3)s2)cc1 (single isomer, unassigned) [Compound 932-ISOMER-A, N3-(3-chloro-4-fluoro-phenyl)-N5-[[5-(4-methoxyphenyl)thiazol-2-yl]methyl]-2-methyl-1,1-dioxo-1,2,6-thiadiazinane-3,5-dicarboxamide]
The EC50 of the first is lower: 50 to 100 nM for the first, 100 to 10000 nM for the second. The first is the more potent here.

CN1C(C(=O)Nc2ccc(F)c(Cl)c2)CC(C(=O)NC2CCN(c3ccnc(Cl)n3)CC2)NS1(=O)=O (centres unmarked) [Compound 1054] and Cc1cccnc1N1CCC(NC(=O)C2CC(C(=O)Nc3ccc(F)c(Cl)c3)N(C)S(=O)(=O)N2)CC1 (centres unmarked) [Compound 1074] cannot be ordered by EC50: less than 50 nM for the first, less than 50 nM for the second.

First: CN1C(C(=O)Nc2ccc(F)c(Cl)c2)CC(C(=O)NCc2cnc(-c3ccc(OCCN4CCCCC4)cc3)s2)NS1(=O)=O (single isomer, unassigned) [Compound 922-ISOMER-A, N3-(3-chloro-4-fluoro-phenyl)-2-methyl-1,1-dioxo-N5-[[2-[4-[2-(1-piperidyl)ethoxy]phenyl]thiazol-5-yl]methyl]-1,2,6-thiadiazinane-3,5-dicarboxamide]
Second: CN1C(C(=O)Nc2ccc(F)c(Cl)c2)CC(C(=O)NCc2cnc(-c3ccc(OCCCN4CCSCC4)cc3)s2)NS1(=O)=O (single isomer, unassigned) [Compound 925-ISOMER-A, N3-(3-chloro-4-fluoro-phenyl)-2-methyl-1,1-dioxo-N5-[[2-[4-(3-thiomorpholinopropoxy)phenyl]thiazol-5-yl]methyl]-1,2,6-thiadiazinane-3,5-dicarboxamide]
The EC50 of the first is higher: 100 to 10000 nM for the first, less than 50 nM for the second.

First: CN1C(C(=O)Nc2ccc(F)c(Cl)c2)CC(C(=O)NC2CCN(C(=O)OCCCN3CCCCC3)CC2)NS1(=O)=O (centres unmarked) [Compound 964]
Second: CCn1ccc(CNC(=O)C2CC(C(=O)Nc3ccc(F)c(Cl)c3)N(C)S(=O)(=O)N2)n1 (centres unmarked) [Compound 745]
The EC50 of the first is higher: 100 to 10000 nM for the first, 50 to 100 nM for the second. The second is the more potent here.

First: Cc1nc(-c2ccccn2)sc1CNC(=O)C1CC(C(=O)Nc2ccc(F)c(Cl)c2)N(C)S(=O)(=O)N1 (single isomer, unassigned) [1065-ISOMER-A, N3-(3-chloro-4-fluoro-phenyl)-2-methyl-N5-[[4-methyl-2-(2-pyridyl)thiazol-5-yl]methyl]-1,1-dioxo-1,2,6-thiadiazinane-3,5-dicarboxamide]
Second: Cc1nc(-c2ccc(F)cc2)sc1CNC(=O)C1CC(C(=O)Nc2ccc(F)c(Cl)c2)N(C)S(=O)(=O)N1 (centres unmarked) [Compound 1056]
The EC50 of the first is higher: 100 to 10000 nM for the first, less than 50 nM for the second.

First: CN1C(C(=O)Nc2ccc(F)c(Cl)c2)CC(C(=O)NCCCc2ccccc2)NS1(=O)=O (centres unmarked) [Compound 726]
Second: COc1ccccc1CNC(=O)C1CC(C(=O)Nc2ccc(F)c(Cl)c2)N(C)S(=O)(=O)N1 (centres unmarked) [Compound 822]
The EC50 of the first is higher: 50 to 100 nM for the first, less than 50 nM for the second. The second is the more potent here.

Compared with Cc1csc(CNC(=O)C2CC(C(=O)Nc3ccc(F)c(Cl)c3)N(C)S(=O)(=O)N2)n1 (single isomer, unassigned) [Compound 686-ISOMER-A, N3-(3-chloro-4-fluoro-phenyl)-2-methyl-N5-[(4-methylthiazol-2-yl)methyl]-1,1-dioxo-1,2,6-thiadiazinane-3,5-dicarboxamide], CC(NC(=O)C1CC(C(=O)Nc2ccc(F)c(Cl)c2)N(C)S(=O)(=O)N1)c1csc(Cl)n1 (centres unmarked) [Compound 1007] is lower in EC50: 100 to 10000 nM for the first, less than 50 nM for the second.

Compared with C[C@@H](NC(=O)C1CC(C(=O)Nc2ccc(F)c(Cl)c2)N(C)S(=O)(=O)N1)c1ccc(C(F)(F)F)cc1 (single isomer, unassigned) [493-R-ISOMER-B], CN1C(C(=O)Nc2ccc(F)c(C#N)c2)CC(C(=O)NCc2cnc(-c3ccccc3)s2)NS1(=O)=O (centres unmarked) [Compound 830] is lower in EC50: 100 to 10000 nM for the first, 50 to 100 nM for the second. The second is the more potent here.
